# Measurements taken from paper PMC7251097, “Aspartate/asparagine-β-hydroxylase: a high-throughput mass spectrometric assay for discovery of small molecule inhibitors” (Scientific Reports, 2020).
# Structures can show the parent of a compound that is named as a salt.
# Target: T1, His6-AspH315–758 (human aspartate/asparagine-β-hydroxylase, AspH) (Homo sapiens, UniProt Q12797)
# T1 construct: N-Terminally His6-tagged human AspH315–758 (His6-AspH315–758) was produced in E. coli BL21 (DE3) cells; made in house; host or cells: E. coli BL21 (DE3), pET-28a(+) vector
# T1 sequence (Q12797 315-758): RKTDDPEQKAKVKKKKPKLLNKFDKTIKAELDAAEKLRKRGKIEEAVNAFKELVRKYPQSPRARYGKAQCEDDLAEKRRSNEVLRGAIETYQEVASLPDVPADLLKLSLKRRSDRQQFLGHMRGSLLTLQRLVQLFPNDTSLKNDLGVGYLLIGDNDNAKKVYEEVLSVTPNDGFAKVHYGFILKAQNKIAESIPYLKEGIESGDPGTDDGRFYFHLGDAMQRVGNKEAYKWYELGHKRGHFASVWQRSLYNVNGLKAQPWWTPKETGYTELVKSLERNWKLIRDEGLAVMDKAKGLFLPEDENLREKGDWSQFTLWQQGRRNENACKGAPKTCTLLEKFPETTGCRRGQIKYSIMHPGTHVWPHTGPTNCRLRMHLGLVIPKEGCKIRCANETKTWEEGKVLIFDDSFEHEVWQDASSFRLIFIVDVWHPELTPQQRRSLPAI
# Assay: SPE-MS AspH inhibition assay (LOPAC screen at fixed 20 μM and IC50 dose-response), hydroxylation of cyclic peptide hFX-CP101–119
# Type: biochemical
# Details: not given
SMILES,Plate 1 (% conversion) [%],Plate 1 (% inhibition) [%],% conversion [%],Plate 2 (% conversion) [%],Plate 3 (% conversion) [%]
C[C@H](CS)C(=O)N1CCC[C@H]1C(=O)O [Captopril],35.34,1.58,–,–,–
CCCCCCNC(=O)n1cc(F)c(=O)[nH]c1=O [Carmofur],–,–,37.69,–,–
O=NN(CCCl)C(=O)NCCCl [Carmustine],39.33,–,–,–,–
CN(C)CCOC(=O)COc1ccc(Cl)cc1 [Centrophenoxine hydrochloride],36.66,-2.35,–,–,–
COc1ccc2c(c[n+](C)c3c4cc5c(cc4ccc23)OCO5)c1OC [Chelerythrine chloride],32.96,–,–,–,–
Cc1ncsc1CCCl.Cl [Chlormethiazole hydrochloride],33.94,5.75,–,–,–
CN1C(=O)CCS(=O)(=O)C1c1ccc(Cl)cc1 (stereo not shown) [Chlormezanone],–,–,–,39.39,–
CCN(CC)CCCC(C)Nc1ccnc2cc(Cl)ccc12 (stereo not shown) [Chloroquine diphosphate],38.59,-8.09,–,–,–
C[N+](C)(C)CCO.[Br-] [Choline bromide],37.78,-5.68,–,–,–
O=C(O)CCC(=O)O.c1ccc(C2(c3ccccc3)CC2C2=NCCN2)cc1 (stereo not shown) [Cibenzoline succinate],–,–,–,–,24.00

# Same assay, conditions: 50 nM His6-AspH315–758, 1.0 μM hFX-CP101–119, 3 μM 2OG, 2 μM Fe(II), 50 mM HEPES pH 7.5, 20 °C; mean ± SD, n = 2 (2,4-PDCA n = 10); read-out: IC50
row,SMILES,IC50 [µM]
1,"Oc1cc2c(cc1O)CN(C(=S)NCCc1ccc(Cl)cc1)CCC2 [Capsazepine, capsazepine, reference compound]",3.41 ± 0.28
2,"Cc1cc(C2CCCCC2)n(O)c(=O)c1 [Ciclopirox olamine, reference compound]",4.39 ± 0.71

# Same assay, conditions: AspH activity; fixed compound concentration 20 μM; initial LOPAC screen; 0.5%v/v DMSO; read-out: Inhibition at 20 µM [%]
row,SMILES,inhibition at 20 µM [%]
1,"Oc1cc2c(cc1O)CN(C(=S)NCCc1ccc(Cl)cc1)CCC2 [Capsazepine, capsazepine, reference compound]",99.7
2,"O=P(O)(O)C(Cl)(Cl)P(=O)(O)O [Clodronic acid, reference compound]",100

# Same assay, conditions: LOPAC Plate 4, compound at 20 uM, substrate conversion
row,SMILES,% conversion [%]
1,CCN(CC)CCn1c(=O)c(Cc2ccc(OC)cc2)nc2ccccc21.Cl [Caroverine hydrochloride],34.53

# Same assay, conditions: LOPAC Plate 4, compound at 20 uM; read-out: % inhibition
row,SMILES,inhibition at 20 µM [%]
1,CCCCCCNC(=O)n1cc(F)c(=O)[nH]c1=O [Carmofur],-3.58

# Same assay, conditions: LOPAC compound at 20uM, plate 2; conversion of substrate peptide
row,SMILES,Plate 2 (% conversion) [%]
1,"Oc1cc2c(cc1O)CN(C(=S)NCCc1ccc(Cl)cc1)CCC2 [Capsazepine, capsazepine, reference compound]",2.59
2,c1ccc(C2CC2)c(OCC2=NCCN2)c1 [Cirazoline hydrochloride],38.17
3,"O=P(O)(O)C(Cl)(Cl)P(=O)(O)O [Clodronic acid, reference compound]",2.30

# Same assay, conditions: LOPAC compound at 20uM, plate 2; normalised to DMSO and 2,4-PDCA controls; read-out: Plate 2 (% inhibition)
row,SMILES,inhibition at 20 µM [%]
1,"Oc1cc2c(cc1O)CN(C(=S)NCCc1ccc(Cl)cc1)CCC2 [Capsazepine, capsazepine, reference compound]",99.7
2,O=C(O)COCCN1CCN(C(c2ccccc2)c2ccc(Cl)cc2)CC1 (stereo not shown) [Cetirizine dihydrochloride],-5.77
3,c1ccc(C2CC2)c(OCC2=NCCN2)c1 [Cirazoline hydrochloride],-6.62
4,"O=P(O)(O)C(Cl)(Cl)P(=O)(O)O [Clodronic acid, reference compound]",101

# Same assay, conditions: LOPAC compound at 20uM, plate 3; conversion of substrate peptide
row,SMILES,Plate 3 (% conversion) [%]
1,N.N.[Cl][Pt][Cl] [Cisplatin],31.15
2,C#CCN(C)CCCOc1ccc(Cl)cc1Cl [Clorgyline hydrochloride],42.76

# Same assay, conditions: LOPAC compound at fixed 20 uM; plate 1, normalised to DMSO and 2,4-PDCA controls
row,SMILES,Plate 1 (% inhibition) [%]
1,C[N+](C)(C)CCOC(N)=O [Carbachol],-3.17
2,NC(=O)N1c2ccccc2C=Cc2ccccc21 [Carbamazepine],0.72
3,CCN(CC)CCOCCOC(=O)C1(c2ccccc2)CCCC1 [Carbetapentane citrate],80.85
4,O=NN(CCCl)C(=O)NCCCl [Carmustine],-10.30
5,N[C@@H](C(=O)N[C@@H]1C(=O)N2C(C(=O)O)=C(Cl)CS[C@H]12)c1ccccc1 [Cefaclor],23.98
6,Cc1nnc(SCC2=C(C(=O)O)N3C(=O)[C@@H](NC(=O)Cn4cnnn4)[C@H]3SC2)s1 [Cefazolin sodium],9.95
7,CO[C@@]1(NC(=O)CSCC#N)C(=O)N2C(C(=O)O)=C(CSc3nnnn3C)CS[C@@H]21 [Cefmetazole sodium],-3.81
8,CO/N=C(\C(=O)N[C@@H]1C(=O)N2C(C(=O)O)=C(COC(C)=O)CS[C@H]12)c1csc(N)n1 [Cefotaxime sodium],3.71
9,NC(=O)c1cc[n+](CC2=C(C(=O)[O-])N3C(=O)[C@@H](NC(=O)C(c4ccccc4)S(=O)(=O)[O-])[C@H]3SC2)cc1.O.[Na+] (stereo partly shown) [Cefsulodin sodium salt hydrate],64.70
10,CO/N=C(\C(=O)N[C@@H]1C(=O)N2C(C(=O)O)=C(CSc3nc(=O)c(=O)[nH]n3C)CS[C@H]12)c1csc(N)n1 [Ceftriaxone sodium],-8.63
11,CC1=C(C(=O)O)N2C(=O)[C@@H](NC(=O)[C@H](N)c3ccccc3)[C@H]2SC1.O [Cephalexin hydrate],14.49
12,CC(=O)OCC1=C(C(=O)O)N2C(=O)[C@@H](NC(=O)Cc3cccs3)[C@H]2SC1 [Cephalothin sodium],9.86
13,CC1=C(C(=O)O)N2C(=O)[C@@H](NC(=O)[C@H](N)C3=CCC=CC3)[C@H]2SC1 [Cephradine],23.03
14,COc1ccc2c(c[n+](C)c3c4cc5c(cc4ccc23)OCO5)c1OC [Chelerythrine chloride],8.68
15,O=C(O)c1cc(O)cc(C(=O)O)n1 [Chelidamic acid],48.94
16,NS(=O)(=O)c1cc2c(cc1Cl)N=CNS2(=O)=O [Chlorothiazide],-4.46
17,CN(C)CCCN1c2ccccc2Sc2ccc(Cl)cc21 [Chlorpromazine hydrochloride],-29.45
18,CCCNC(=O)NS(=O)(=O)c1ccc(Cl)cc1 [Chlorpropamide],-3.59
19,CN(C)CC/C=C1/c2ccccc2Sc2ccc(Cl)cc21 [Chlorprothixene hydrochloride],-27.95
20,CN(C(=O)CCCOc1ccc2[nH]c(=O)ccc2c1)C1CCCCC1 [Cilostamide],-8.28
21,O=C1CCc2cc(OCCCCc3nnnn3C3CCCCC3)ccc2N1 [Cilostazol],-4.97
22,CN/C(=N/CCSCc1nc[nH]c1C)NC#N [Cimetidine],-0.45
23,CCn1nc(C(=O)O)c(=O)c2cc3c(cc21)OCO3 [Cinoxacin],-6.95
24,CC(C)(Oc1ccc(C2CC2(Cl)Cl)cc1)C(=O)O (stereo not shown) [Ciprofibrate],-0.63
25,CN(C)CCCC1(c2ccc(F)cc2)OCc2cc(C#N)ccc21 (stereo not shown) [Citalopram hydrobromide],-13.21
26,Cl.Clc1ccc(Cn2c(CN3CCCC3)nc3ccccc32)cc1 [Clemizole hydrochloride],-13.99
27,CCOC(=O)C(C)(C)Oc1ccc(Cl)cc1 [Clofibrate],-11.71
28,CN(C)CCCN1c2ccccc2CCc2ccc(Cl)cc21 [Clomipramine hydrochloride],-22.34
29,Clc1cccc(Cl)c1N=C1NCCN1 [Clonidine hydrochloride],-13.86

# Same assay, conditions: LOPAC compound at fixed 20 uM; substrate conversion, plate 1
row,SMILES,Plate 1 (% conversion) [%]
1,C[N+](C)(C)CCOC(N)=O [Carbachol],36.94
2,NC(=O)N1c2ccccc2C=Cc2ccccc21 [Carbamazepine],35.63
3,CCN(CC)CCOCCOC(=O)C1(c2ccccc2)CCCC1 [Carbetapentane citrate],8.72
4,N[C@@H](C(=O)N[C@@H]1C(=O)N2C(C(=O)O)=C(Cl)CS[C@H]12)c1ccccc1 [Cefaclor],27.82
5,Cc1nnc(SCC2=C(C(=O)O)N3C(=O)[C@@H](NC(=O)Cn4cnnn4)[C@H]3SC2)s1 [Cefazolin sodium],32.53
6,CO[C@@]1(NC(=O)CSCC#N)C(=O)N2C(C(=O)O)=C(CSc3nnnn3C)CS[C@@H]21 [Cefmetazole sodium],37.15
7,CO/N=C(\C(=O)N[C@@H]1C(=O)N2C(C(=O)O)=C(COC(C)=O)CS[C@H]12)c1csc(N)n1 [Cefotaxime sodium],34.63
8,NC(=O)c1cc[n+](CC2=C(C(=O)[O-])N3C(=O)[C@@H](NC(=O)C(c4ccccc4)S(=O)(=O)[O-])[C@H]3SC2)cc1.O.[Na+] (stereo partly shown) [Cefsulodin sodium salt hydrate],14.14
9,CO/N=C(\C(=O)N[C@@H]1C(=O)N2C(C(=O)O)=C(CSc3nc(=O)c(=O)[nH]n3C)CS[C@H]12)c1csc(N)n1 [Ceftriaxone sodium],38.77
10,CC(=O)OCC1=C(C(=O)O)N2C(=O)[C@@H](NC(=O)Cc3cccs3)[C@H]2SC1 [Cephalothin sodium],32.56
11,CC1=C(C(=O)O)N2C(=O)[C@@H](NC(=O)[C@H](N)C3=CCC=CC3)[C@H]2SC1 [Cephradine],28.14
12,O=C(O)c1cc(O)cc(C(=O)O)n1 [Chelidamic acid],19.44
13,NS(=O)(=O)c1cc2c(cc1Cl)N=CNS2(=O)=O [Chlorothiazide],37.37
14,CN(C)CCCN1c2ccccc2Sc2ccc(Cl)cc21 [Chlorpromazine hydrochloride],45.76
15,CCCNC(=O)NS(=O)(=O)c1ccc(Cl)cc1 [Chlorpropamide],37.08
16,CN(C)CC/C=C1/c2ccccc2Sc2ccc(Cl)cc21 [Chlorprothixene hydrochloride],45.26
17,CN(C(=O)CCCOc1ccc2[nH]c(=O)ccc2c1)C1CCCCC1 [Cilostamide],38.65
18,O=C1CCc2cc(OCCCCc3nnnn3C3CCCCC3)ccc2N1 [Cilostazol],37.54
19,CN/C(=N/CCSCc1nc[nH]c1C)NC#N [Cimetidine],36.02
20,CCn1nc(C(=O)O)c(=O)c2cc3c(cc21)OCO3 [Cinoxacin],38.21
21,CC(C)(Oc1ccc(C2CC2(Cl)Cl)cc1)C(=O)O (stereo not shown) [Ciprofibrate],36.08
22,CN(C)CCCC1(c2ccc(F)cc2)OCc2cc(C#N)ccc21 (stereo not shown) [Citalopram hydrobromide],40.31
23,Cl.Clc1ccc(Cn2c(CN3CCCC3)nc3ccccc32)cc1 [Clemizole hydrochloride],40.57
24,CCOC(=O)C(C)(C)Oc1ccc(Cl)cc1 [Clofibrate],39.80
25,CN(C)CCCN1c2ccccc2CCc2ccc(Cl)cc21 [Clomipramine hydrochloride],43.38
26,Clc1cccc(Cl)c1N=C1NCCN1 [Clonidine hydrochloride],40.53

# Same assay, conditions: plate 5 (Pfitzer), test compounds at fixed 20 μM
row,SMILES,Plate 5 (% inhibition) [%]
1,Cc1ccc(-c2cc(C(F)(F)F)nn2-c2ccc(S(N)(=O)=O)cc2)cc1 [Celecoxib],-13.08

# Same assay, conditions: plate 5 (Pfitzer), test compounds at fixed 20 μM; mean conversion DMSO 32.88
row,SMILES,Plate 5 (% conversion) [%]
1,Cc1ccc(-c2cc(C(F)(F)F)nn2-c2ccc(S(N)(=O)=O)cc2)cc1 [Celecoxib],40.77

# Same assay, conditions: read-out: Plate 2 (% inhibition)
row,SMILES,inhibition at 20 µM [%]
1,CN1C(=O)CCS(=O)(=O)C1c1ccc(Cl)cc1 (stereo not shown) [Chlormezanone],-10.3
